This is an account of results in ChEMBL document CHEMBL1743201, “Casarett and Doull's Toxicology The Basic Science of Poisons, 7th edition” (2008).

What all share (type): ADME
Data set [1] addresses T1, Cytochrome P450 2A6 (Homo sapiens, UniProt P11509).
T1 sequence (P11509 whole entry): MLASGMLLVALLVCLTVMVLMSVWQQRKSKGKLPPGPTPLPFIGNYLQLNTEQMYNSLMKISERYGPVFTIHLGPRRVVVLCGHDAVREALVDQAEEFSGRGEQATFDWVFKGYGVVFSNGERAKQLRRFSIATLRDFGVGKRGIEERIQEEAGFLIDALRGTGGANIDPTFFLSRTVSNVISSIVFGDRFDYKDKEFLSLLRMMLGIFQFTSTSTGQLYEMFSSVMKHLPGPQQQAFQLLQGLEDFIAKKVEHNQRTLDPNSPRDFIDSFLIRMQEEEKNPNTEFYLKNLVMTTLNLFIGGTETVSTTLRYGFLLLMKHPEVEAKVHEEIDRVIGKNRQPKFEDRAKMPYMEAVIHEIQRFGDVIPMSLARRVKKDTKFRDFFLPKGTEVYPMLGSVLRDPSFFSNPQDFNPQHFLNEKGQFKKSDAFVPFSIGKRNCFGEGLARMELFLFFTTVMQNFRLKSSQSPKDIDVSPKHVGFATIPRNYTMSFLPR
Kind of data set: Clinically relevant inducers of human liver microsomal P450 enzymes, isoform CYP2A6. The note with it: microsomes.

Another data set deals with Cytochrome P450 2C19 (Homo sapiens, UniProt P33261). In words: Clinically relevant inducers of human liver microsomal P450 enzymes, isoform CYP2C19. The note with it: microsomes. In general terms: Liver microsomes are a subcellular fraction often used to study metabolism.
Cytochrome P450 2C19, sequence (P33261 whole entry, canonical isoform): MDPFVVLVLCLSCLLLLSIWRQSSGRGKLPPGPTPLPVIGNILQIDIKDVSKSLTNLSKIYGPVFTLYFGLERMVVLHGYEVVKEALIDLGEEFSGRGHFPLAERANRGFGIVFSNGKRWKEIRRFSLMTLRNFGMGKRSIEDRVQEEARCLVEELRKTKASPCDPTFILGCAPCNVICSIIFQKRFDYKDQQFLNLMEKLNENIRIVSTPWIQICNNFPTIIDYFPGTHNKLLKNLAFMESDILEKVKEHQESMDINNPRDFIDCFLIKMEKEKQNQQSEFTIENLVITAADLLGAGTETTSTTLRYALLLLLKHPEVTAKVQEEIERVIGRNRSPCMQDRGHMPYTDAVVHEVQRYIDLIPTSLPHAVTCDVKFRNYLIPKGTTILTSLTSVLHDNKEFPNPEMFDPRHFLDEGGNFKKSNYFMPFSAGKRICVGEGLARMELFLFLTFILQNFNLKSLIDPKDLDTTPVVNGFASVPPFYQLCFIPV
For another data set, the target named is T2, Cytochrome P450 2C8 (Homo sapiens, UniProt P10632).
T2 sequence (P10632 whole entry): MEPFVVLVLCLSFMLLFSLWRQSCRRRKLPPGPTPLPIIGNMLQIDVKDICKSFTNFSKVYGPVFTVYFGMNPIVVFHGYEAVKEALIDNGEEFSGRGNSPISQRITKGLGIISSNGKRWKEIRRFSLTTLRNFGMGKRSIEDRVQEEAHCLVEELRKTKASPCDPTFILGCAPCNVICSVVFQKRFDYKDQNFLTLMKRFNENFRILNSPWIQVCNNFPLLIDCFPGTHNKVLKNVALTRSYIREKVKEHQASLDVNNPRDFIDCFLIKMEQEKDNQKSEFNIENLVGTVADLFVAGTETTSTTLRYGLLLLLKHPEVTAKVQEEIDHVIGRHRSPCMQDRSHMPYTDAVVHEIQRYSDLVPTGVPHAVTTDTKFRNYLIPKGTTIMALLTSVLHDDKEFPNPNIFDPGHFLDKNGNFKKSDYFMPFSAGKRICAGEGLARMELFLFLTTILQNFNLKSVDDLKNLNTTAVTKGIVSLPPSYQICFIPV
In words: Clinically relevant inducers of human liver microsomal P450 enzymes, isoform CYP2C8. Conditions: microsomes.

The next data set has as its target T3, Cytochrome P450 2B6 (Homo sapiens, UniProt P20813).
T3 sequence (P20813 whole entry): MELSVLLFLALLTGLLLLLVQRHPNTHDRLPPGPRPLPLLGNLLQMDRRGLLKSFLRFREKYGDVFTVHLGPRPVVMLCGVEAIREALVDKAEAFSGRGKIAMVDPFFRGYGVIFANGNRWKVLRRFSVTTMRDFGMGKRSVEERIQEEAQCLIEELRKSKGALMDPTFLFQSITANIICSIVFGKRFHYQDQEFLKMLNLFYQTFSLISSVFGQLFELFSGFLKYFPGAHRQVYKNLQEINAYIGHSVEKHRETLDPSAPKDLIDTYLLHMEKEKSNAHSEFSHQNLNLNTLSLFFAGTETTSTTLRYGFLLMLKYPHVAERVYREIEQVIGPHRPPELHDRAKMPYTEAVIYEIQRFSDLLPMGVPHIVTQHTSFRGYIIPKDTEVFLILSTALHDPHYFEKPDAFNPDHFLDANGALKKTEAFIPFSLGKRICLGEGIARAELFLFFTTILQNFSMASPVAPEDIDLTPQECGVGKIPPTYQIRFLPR
Kind of data set: Clinically relevant inducers of human liver microsomal P450 enzymes, isoform CYP2B6. Conditions: microsomes.

The target of data set [2] is T4, Cytochrome P450 2E1 (Homo sapiens, UniProt P05181). Kind of data set: Clinically relevant inducers of human liver microsomal P450 enzymes, isoform CYP2E1. Conditions: microsomes.
T4 sequence (P05181 whole entry, canonical isoform): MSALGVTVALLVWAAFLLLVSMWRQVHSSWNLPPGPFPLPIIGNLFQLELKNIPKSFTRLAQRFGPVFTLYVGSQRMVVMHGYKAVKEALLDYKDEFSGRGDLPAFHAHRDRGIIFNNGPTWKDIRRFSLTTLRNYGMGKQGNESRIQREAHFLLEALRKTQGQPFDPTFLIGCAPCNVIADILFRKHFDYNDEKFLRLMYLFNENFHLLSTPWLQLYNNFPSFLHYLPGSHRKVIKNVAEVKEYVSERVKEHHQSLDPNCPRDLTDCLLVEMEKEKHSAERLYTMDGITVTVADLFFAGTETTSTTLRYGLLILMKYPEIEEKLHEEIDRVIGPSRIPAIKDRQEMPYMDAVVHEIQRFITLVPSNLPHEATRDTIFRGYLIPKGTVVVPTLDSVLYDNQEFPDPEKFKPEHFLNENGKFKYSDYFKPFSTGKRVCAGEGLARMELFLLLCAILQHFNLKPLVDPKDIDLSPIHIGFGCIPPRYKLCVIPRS
Data set [3] has as its target T1, Cytochrome P450 2A6. In words: Clinically relevant substrates of human liver microsomal P450 enzymes, isoform CYP2A6. Conditions: microsomes.
The target of data set [4] is T5, Sulfotransferase 2B1 (Homo sapiens, UniProt O00204).
T5 sequence (O00204 whole entry): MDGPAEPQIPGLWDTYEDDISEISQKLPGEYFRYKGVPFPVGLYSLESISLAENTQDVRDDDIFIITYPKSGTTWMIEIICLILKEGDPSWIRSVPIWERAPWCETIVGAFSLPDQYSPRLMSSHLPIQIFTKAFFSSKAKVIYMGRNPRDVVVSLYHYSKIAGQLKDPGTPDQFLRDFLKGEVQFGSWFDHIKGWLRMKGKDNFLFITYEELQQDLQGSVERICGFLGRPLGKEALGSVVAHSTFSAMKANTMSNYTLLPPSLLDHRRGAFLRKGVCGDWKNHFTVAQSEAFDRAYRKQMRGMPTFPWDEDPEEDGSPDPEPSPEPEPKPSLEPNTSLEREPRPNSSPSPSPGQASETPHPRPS
In words: Major substrate of human cytosolic sulfotransferase SULT2B1_v2.

For a further data set, the target named is T6, Sulfotransferase 2A1 (Homo sapiens, UniProt Q06520).
T6 sequence (Q06520 whole entry): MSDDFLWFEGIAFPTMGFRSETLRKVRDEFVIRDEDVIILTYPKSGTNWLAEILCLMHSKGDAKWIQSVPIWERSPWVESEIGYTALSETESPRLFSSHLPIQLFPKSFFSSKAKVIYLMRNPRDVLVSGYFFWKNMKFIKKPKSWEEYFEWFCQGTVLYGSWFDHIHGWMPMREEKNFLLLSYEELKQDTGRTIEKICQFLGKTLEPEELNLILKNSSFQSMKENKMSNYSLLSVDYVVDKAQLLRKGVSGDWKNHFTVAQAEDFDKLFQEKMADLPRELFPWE
Kind of data set: Major substrate of human cytosolic sulfotransferase SULT2A1.

Data set [5] deals with T5, Sulfotransferase 2B1. In words: Major substrate of human cytosolic sulfotransferase SULT2B1_v1.
The next data set concerns the target T7, Sulfotransferase 1E1 (Homo sapiens, UniProt P49888).
T7 sequence (P49888 whole entry): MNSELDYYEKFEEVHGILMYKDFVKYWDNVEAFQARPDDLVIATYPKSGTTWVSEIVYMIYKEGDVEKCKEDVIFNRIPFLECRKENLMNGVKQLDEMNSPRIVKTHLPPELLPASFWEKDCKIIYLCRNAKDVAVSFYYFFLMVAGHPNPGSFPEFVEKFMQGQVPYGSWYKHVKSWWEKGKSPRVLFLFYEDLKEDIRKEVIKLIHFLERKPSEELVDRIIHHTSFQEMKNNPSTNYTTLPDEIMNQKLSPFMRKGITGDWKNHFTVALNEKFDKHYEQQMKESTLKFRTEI
In words: Major substrate of human cytosolic sulfotransferase SULT1E1.

A further data set addresses Sulfotransferase 1C2 (Homo sapiens, UniProt O00338). In words: Major substrate of human cytosolic sulfotransferase SULT1C2.
In another data set the target is Sulfotransferase 1A2 (Homo sapiens, UniProt P50226). Kind of data set: Major substrate of human cytosolic sulfotransferase SULT1A2.
Sulfotransferase 1A2, sequence (P50226 whole entry): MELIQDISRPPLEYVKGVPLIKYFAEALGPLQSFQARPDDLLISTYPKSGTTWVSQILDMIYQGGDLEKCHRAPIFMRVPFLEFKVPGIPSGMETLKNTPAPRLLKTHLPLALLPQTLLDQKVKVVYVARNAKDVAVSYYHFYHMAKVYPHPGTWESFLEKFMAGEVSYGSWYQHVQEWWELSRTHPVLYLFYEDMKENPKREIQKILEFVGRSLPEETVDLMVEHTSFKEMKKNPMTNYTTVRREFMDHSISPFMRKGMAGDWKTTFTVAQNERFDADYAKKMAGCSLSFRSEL
The next data set deals with Sulfotransferase 1C4 (Homo sapiens, UniProt O75897). Kind of data set: Major substrate of human cytosolic sulfotransferase SULT1C4.
Sulfotransferase 1C4, sequence (O75897 whole entry): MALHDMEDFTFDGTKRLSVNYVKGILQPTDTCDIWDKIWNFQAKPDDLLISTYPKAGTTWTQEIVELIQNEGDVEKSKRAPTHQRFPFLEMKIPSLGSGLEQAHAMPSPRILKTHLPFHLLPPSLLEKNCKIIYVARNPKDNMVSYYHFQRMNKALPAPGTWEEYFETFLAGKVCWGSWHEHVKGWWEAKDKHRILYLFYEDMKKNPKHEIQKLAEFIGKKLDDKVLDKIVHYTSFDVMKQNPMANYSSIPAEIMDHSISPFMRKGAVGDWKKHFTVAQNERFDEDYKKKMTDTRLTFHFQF
The target in a further data set is Sulfotransferase 1B1 (Homo sapiens, UniProt O43704). In words: Major substrate of human cytosolic sulfotransferase SULT1B1.
Sulfotransferase 1B1, sequence (O43704 whole entry): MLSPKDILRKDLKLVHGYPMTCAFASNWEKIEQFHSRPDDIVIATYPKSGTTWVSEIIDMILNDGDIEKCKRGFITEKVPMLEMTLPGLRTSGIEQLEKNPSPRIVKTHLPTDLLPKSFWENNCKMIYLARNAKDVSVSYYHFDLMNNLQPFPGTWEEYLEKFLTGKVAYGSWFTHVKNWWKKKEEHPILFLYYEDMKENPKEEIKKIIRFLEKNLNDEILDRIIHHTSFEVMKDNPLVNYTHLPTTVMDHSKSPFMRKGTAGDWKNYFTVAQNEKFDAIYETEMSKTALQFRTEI
The target of a further data set is Sulfotransferase 1A1 (Homo sapiens, UniProt P50225). In words: Major substrate of human cytosolic sulfotransferase SULT1A1.
Sulfotransferase 1A1, sequence (P50225 whole entry): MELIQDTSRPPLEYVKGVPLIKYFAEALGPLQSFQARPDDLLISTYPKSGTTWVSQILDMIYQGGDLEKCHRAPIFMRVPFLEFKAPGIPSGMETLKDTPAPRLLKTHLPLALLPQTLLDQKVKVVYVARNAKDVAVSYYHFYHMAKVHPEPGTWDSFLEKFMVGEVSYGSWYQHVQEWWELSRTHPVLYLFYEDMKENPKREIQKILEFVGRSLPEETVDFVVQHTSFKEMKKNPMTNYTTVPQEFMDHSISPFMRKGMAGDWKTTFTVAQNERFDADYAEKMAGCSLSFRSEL
Data set [6] addresses T8, UDP-glucuronosyltransferase 1A6 (Homo sapiens, UniProt P19224).
T8 sequence (P19224 whole entry): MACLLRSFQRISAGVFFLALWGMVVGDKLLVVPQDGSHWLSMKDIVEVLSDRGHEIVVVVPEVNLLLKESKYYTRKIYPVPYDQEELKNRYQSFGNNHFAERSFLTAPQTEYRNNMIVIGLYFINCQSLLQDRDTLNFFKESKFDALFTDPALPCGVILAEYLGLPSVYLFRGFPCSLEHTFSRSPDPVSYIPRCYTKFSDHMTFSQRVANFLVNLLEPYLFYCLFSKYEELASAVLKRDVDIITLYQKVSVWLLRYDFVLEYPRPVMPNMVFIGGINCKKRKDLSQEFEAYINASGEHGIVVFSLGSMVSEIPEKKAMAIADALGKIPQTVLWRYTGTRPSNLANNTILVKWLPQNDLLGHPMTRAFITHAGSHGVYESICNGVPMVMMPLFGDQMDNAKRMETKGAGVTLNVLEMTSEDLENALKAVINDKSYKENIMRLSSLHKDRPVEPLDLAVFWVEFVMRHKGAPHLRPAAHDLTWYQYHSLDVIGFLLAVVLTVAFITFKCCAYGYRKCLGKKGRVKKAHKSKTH
In words: Substrate of human UDP-glucuronosyltransferase UGT1A6.

Data set [7] has as its target T4, Cytochrome P450 2E1. In words: Clinically relevant substrates of human liver microsomal P450 enzymes, isoform CYP2E1. The note with it: microsomes.
The next data set has as its target T9, Sulfotransferase 4A1 (Homo sapiens, UniProt Q9BR01).
T9 sequence (Q9BR01 whole entry): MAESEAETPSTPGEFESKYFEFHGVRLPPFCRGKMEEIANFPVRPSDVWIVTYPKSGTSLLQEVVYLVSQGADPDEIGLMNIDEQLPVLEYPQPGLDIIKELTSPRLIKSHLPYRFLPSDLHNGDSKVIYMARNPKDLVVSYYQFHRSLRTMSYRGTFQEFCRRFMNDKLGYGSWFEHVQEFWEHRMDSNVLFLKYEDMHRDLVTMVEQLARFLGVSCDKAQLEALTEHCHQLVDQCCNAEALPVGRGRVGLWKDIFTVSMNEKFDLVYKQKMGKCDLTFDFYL
Kind of data set: Major substrate of human cytosolic sulfotransferase SULT4A1_v1.

The target of another data set is Sulfotransferase 1A3 (Homo sapiens, UniProt P0DMM9). Kind of data set: Major substrate of human cytosolic sulfotransferase SULT1A3.
Sulfotransferase 1A3, sequence (P0DMM9 whole entry): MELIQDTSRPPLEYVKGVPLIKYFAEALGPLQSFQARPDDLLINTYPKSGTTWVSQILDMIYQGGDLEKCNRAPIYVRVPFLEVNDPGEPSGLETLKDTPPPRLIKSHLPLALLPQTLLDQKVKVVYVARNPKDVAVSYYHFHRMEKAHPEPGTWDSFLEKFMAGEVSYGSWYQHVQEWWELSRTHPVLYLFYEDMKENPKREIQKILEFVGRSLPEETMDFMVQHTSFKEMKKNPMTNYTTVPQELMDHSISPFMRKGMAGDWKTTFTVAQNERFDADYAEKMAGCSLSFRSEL

Sulfotransferase 1C2, sequence (O00338 whole entry): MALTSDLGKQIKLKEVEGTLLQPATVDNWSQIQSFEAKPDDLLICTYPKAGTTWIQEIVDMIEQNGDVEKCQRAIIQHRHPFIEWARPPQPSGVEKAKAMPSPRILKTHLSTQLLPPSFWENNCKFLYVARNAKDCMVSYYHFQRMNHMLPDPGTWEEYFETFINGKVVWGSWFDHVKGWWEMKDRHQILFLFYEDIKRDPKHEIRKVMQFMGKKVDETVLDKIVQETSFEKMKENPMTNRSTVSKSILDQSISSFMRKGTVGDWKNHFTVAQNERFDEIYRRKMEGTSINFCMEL

`c1cn[nH]c1` [PYRAZOLE]: at Cytochrome P450 2A6 [1], the Activity entry is reported as “Inducer”.
For the compound `CO[C@H]1/C=C/O[C@@]2(C)Oc3c(C)c(O)c4c(O)c(c(/C=N/N5CCN(C)CC5)c(O)c4c3C2=O)NC(=O)/C(C)=C\C=C\[C@H](C)[C@H](O)[C@@H](C)[C@@H](O)[C@@H](C)[C@H](OC(C)=O)[C@@H]1C` [RIFAMPIN], the Activity result at Cytochrome P450 2C19, on Cytochrome P450 2C8 and on Cytochrome P450 2B6 was “Inducer” each time.
Regarding `NNC(=O)c1ccncc1` [ISONIAZID], the Activity entry on Cytochrome P450 2E1 [2] is given as “Inducer”.
As to `O=c1ccc2ccccc2o1` [COUMARIN], the Activity result at Cytochrome P450 2A6 [3] is reported as “Substrate”.
Regarding `CC(C)CCC[C@@H](C)[C@H]1CC[C@H]2[C@@H]3CC=C4C[C@@H](O)CC[C@]4(C)[C@H]3CC[C@]12C` [CHOLESTEROL], the Activity result on Sulfotransferase 2B1 [4] is recorded as “Substrate”.
`CC(=O)[C@H]1CC[C@H]2[C@@H]3CC=C4C[C@@H](O)CC[C@]4(C)[C@H]3CC[C@]12C` [PREGNENOLONE]: the Activity result at Sulfotransferase 2A1, at Sulfotransferase 2B1 [5] and at Sulfotransferase 1E1 was “Substrate” in each case.
As for `CC(=O)N(O)c1ccc2c(c1)Cc1ccccc1-2`, the Activity result on Sulfotransferase 1C2, on Sulfotransferase 1A2 and on Sulfotransferase 1C4 was “Substrate” in each case.
In the case of `C[C@]12CC[C@H](O)CC1=CC[C@@H]1[C@@H]2CC[C@]2(C)C(=O)CC[C@@H]12` [PRASTERONE], the Activity result at Sulfotransferase 2A1, at Sulfotransferase 2B1 [4], at Sulfotransferase 2B1 [5] and at Sulfotransferase 1E1 was “Substrate” each time.
Consider `O=[N+]([O-])c1ccc(O)cc1` [P-NITROPHENOL], for which the Activity entry (on Sulfotransferase 1B1; at Sulfotransferase 1A1; in data set [6]; at Cytochrome P450 2E1 [7]; on Sulfotransferase 4A1; on Sulfotransferase 1C2) was “Substrate” each time. Also, the Activity result at Sulfotransferase 1A2, at Sulfotransferase 1C4 and on Sulfotransferase 1A3 was “Substrate” each time.
As to `C[C@@H]1C[C@H]2[C@@H]3CCC4=CC(=O)C=C[C@]4(C)[C@@]3(F)[C@@H](O)C[C@]2(C)[C@@]1(O)C(=O)CO` [DEXAMETHASONE], the Activity result on Cytochrome P450 2A6 [1] is reported as “Inducer”.
As for `CN1CCC[C@H]1c1cccnc1` [NICOTINE], the Activity entry on Cytochrome P450 2A6 [3] is given as “Substrate”.
Take `CCO` [ALCOHOL]: on Cytochrome P450 2E1 [2], the Activity result was “Inducer”.
